# From patent publication US20250235545A1, “POLYPEPTIDE CONJUGATE AND USE THEREOF” (SHANGHAI CHIXI BIOMEDICAL TECHNOLOGY CO., LTD, priority 2024, published 2025)
# Where two headings read alike, the source gives them in different places.
# What was measured:
# [1] = MTD determination in mice (Examples 27, 36, 44); assay type: in vivo
# Source text: Test animals: 6-8 weeks old mice, all female; mice were grouped randomly, with six mice in each group, administered with drugs at different concentration gradients separately and monitored for 14 d. A mouse was euthanized at a loss of 20% of its initial weight and deemed to have died of poisoning.
# [2] = system: colo320 colorectal cancer tumor model
# Description: Test objective: To investigate the antitumor efficacy of the above compounds in an animal tumor model of colo320 colorectal cancer.
# (§1) Test drug: Polypeptide conjugate, Irinotecan, Belotecan and normal saline control group.
# (§2) Test animals: 6-8 weeks old BALB/c mice, all female.
# (§3) Passaging was performed every three days, and cells within 15 generations were used. 7.5×10^6 corresponding cells were injected into right chests of nude mice subcutaneously. After a volume of the tumors reached at least 120 mm^3, the mice were grouped randomly, with three mice in each group. Then treatment was started, and the day when the treatment was started was the first day. […] The control group was administered with normal saline. Administration was performed once a week for four weeks.
# [3] = system: A549 (non-small cell lung cancer); assay: cells; assay type: cell-based; details: CCK8, 48 h; for IC50: Homo sapiens, A549
# Description: (§4) Different types of cells were cultured with complete media (RPMI1640 (DMEM high sugar medium)+10% fetal bovine serum+1XP/S+sodium pyruvate 1 mM solution) in an incubator at 37° C. and 5% CO2 until the cells grew to a sufficient number, and the cells were collected, centrifuged at 1,000 g for 5 min, resuspended with an appropriate volume of a 10% RMPI1640 (DMEM high sugar medium) medium and counted. In a 96-well culture plate, 100 μL of cell culture fluid containing different concentrations of drugs was added, control wells (0.1% DMSO) with only corresponding drug solvents without drugs, as well as blank wells (Blank) with only the medium but without cells were set, and three parallel wells were set in each group. After that, the cells after cell counting were inoculated onto 96-well culture plates, with 100 μL of cell suspension per well, and an inoculation concentration of the cells was 5,000 cells (100 μL)/well. The plates were then cultured in a CO2 (5%) incubator at 37° C. for 48 h. After 48 h, 10 μL of a cell proliferation staining reagent (CCK8) was added to each well, the plates were incubated in a cell incubator for around 2 h, and an absorbance at 450 nm was detected.
# (§5) Cell survival rates and median inhibitory concentrations of the drugs on the cells were calculated.
# as §4, with “serum+1×P/S+sodium” for “serum+1XP/S+sodium”, “adjusted to an appropriate density.” for “counted.”
# (§6) Cell survival rates and median inhibitory concentrations (IC50) of the drugs on the cells were calculated.
# [4] = system: SKBR3 (breast cancer tissue); assay: cells; assay type: cell-based; details: CCK8, 48 h; for IC50: Homo sapiens, SK-BR-3
# Description: as §4, §5
# as §4, with “serum+1×P/S+sodium” for “serum+1XP/S+sodium”, “adjusted to an appropriate density.” for “counted.”
# as §6
# A2780 (ovarian cancer) = assay: cells; assay type: cell-based; details: CCK8, 48 h; for IC50: Homo sapiens, A2780
# Description: as §4, §5
# as §4, with “serum+1×P/S+sodium” for “serum+1XP/S+sodium”, “adjusted to an appropriate density.” for “counted.”
# as §6
# SJSA-1 (sarcoma tissue) = assay: cells; assay type: cell-based; details: CCK8, 48 h; for IC50: Homo sapiens, SJSA-1
# Description: as §4, §5
# as §4, with “serum+1×P/S+sodium” for “serum+1XP/S+sodium”, “adjusted to an appropriate density.” for “counted.”
# as §6
# [5] = system: sarcoma SJSA-1 tumor model
# Description: Test objective: To investigate the antitumor efficacy of the above compounds in an animal tumor model of sarcoma SJSA-1.
# as §1, §2
# as §3, with “SJSA-1 cells were purchased from ATCC and cultured in a DMEM medium containing 10% fetal bovine serum at 37° C. in 5% CO2. Passaging” for “Passaging”, “2×10^7” for “7.5×10^6”, “100” for “120”, “three” for “four”
# as §3, with “SJSA-1 cells were purchased from ATCC and cultured in a DMEM medium containing 10% fetal bovine serum at 37° C. in 5% CO2. Passaging” for “Passaging”, “2×10^7” for “7.5×10^6”, “100” for “120”, “three” for “four”
# [6] = system: colo320 (colorectal cancer tissue); assay: cells; assay type: cell-based; details: CCK8, 48 h, Table 6
# Description: as §4, with “serum+1×P/S+sodium” for “serum+1XP/S+sodium”, “adjusted to an appropriate density.” for “counted.”
# as §6
# [7] = mice, monitored for 14 d, Table 4
# [8] = mice, monitored for 14 d, Table 9
# [9] = 5 mg/kg once a week for four weeks, Table 3
# [10] = 5 mg/kg once a week for four weeks, Table 8
# [11] = 5 mg/kg once a week for three weeks, Table 2
# [12] = 5 mg/kg once a week for three weeks, Table 7
# [13] = 15 mg/kg once a week for four weeks, Table 3
# [14] = 15 mg/kg once a week for four weeks, Table 8
# [15] = Table 13 (Example 42), dose 15 mg/kg, once a week for four weeks, BALB/c mice
# [16] = Table 14 (Example 43), dose 15 mg/kg, once a week for four weeks, BALB/c mice
# [17] = 15 mg/kg once a week for three weeks, Table 2
# [18] = 15 mg/kg once a week for three weeks, Table 7
smiles,measurement,setting,value
CC[C@@]1(O)C(=O)OCc2c1cc1n(c2=O)Cc2c-1nc1ccccc1c2CCNC1CCC1 [D7],MTD,[1]; [7],15 mg/kg
same,MTD,[1]; [8],15 mg/kg
same,Mouse weight (%),[2]; [9],−8%
same,colo320 (colorectal cancer cell) growth rate (%),[2]; [9],1136.64%
same,colo320 (colorectal cancer cell) mean tumor volume (mm^3),[2]; [9],1258.9 mm^3
same,Mouse weight (%),[2]; [10],−8%
same,colo320 (colorectal cancer cell) growth rate (%),[2]; [10],1136.64%
same,colo320 (colorectal cancer cell) mean tumor volume (mm^3),[2]; [10],1258.9 mm^3
same,IC50 A549 (non-small cell lung cancer),[3]; Table 1,0.0074 mg/L
same,IC50 Non-small cell lung cancer tissue (A549),[3]; Table 6,0.0074 mg/L
same,IC50 SKBR3 (breast cancer tissue),[4]; Table 1,0.016 mg/L
same,IC50 Breast cancer tissue (SKBR3),[4]; Table 6,0.016 mg/L
same,IC50 A2780 (ovarian cancer),A2780 (ovarian cancer); Table 1,0.0043 mg/L
same,IC50 Ovarian cancer tissue (A2780),A2780 (ovarian cancer); Table 6,0.0043 mg/L
same,IC50 SJSA-1 (sarcoma tissue),SJSA-1 (sarcoma tissue); Table 1,0.0084 mg/L
same,IC50 Sarcoma tissue (SJSA-1),SJSA-1 (sarcoma tissue); Table 6,0.0084 mg/L
same,Mouse weight (%),[5]; [11],−7%
same,SJSA-1 (sarcoma tissue) mean tumor volume (mm^3),[5]; [11],1369.5 mm^3
same,SJSA-1 (sarcoma) Growth rate (%),[5]; [11],1185.01%
same,Mouse weight (%),[5]; [12],−7%
same,SJSA-1 (sarcoma tissue) growth rate (%),[5]; [12],1185.01%
same,SJSA-1 (sarcoma tissue) mean tumor volume (mm^3),[5]; [12],1369.5 mm^3
same,IC50 Colorectal cancer tissue (colo320),[6],0.017 mg/L
CC[C@@]1(O)C(=O)OCc2c1cc1n(c2=O)Cc2c-1nc1ccccc1c2CCNC1CCCC1 [D8],MTD,[1]; [7],25 mg/kg
same,MTD,[1]; [8],25 mg/kg
same,Mouse weight (%),[2]; [9],−6%
same,colo320 (colorectal cancer cell) growth rate (%),[2]; [9],1082.65%
same,colo320 (colorectal cancer cell) mean tumor volume (mm^3),[2]; [9],1199.1 mm^3
same,Mouse weight (%),[2]; [10],−6%
same,colo320 (colorectal cancer cell) growth rate (%),[2]; [10],1082.65%
same,colo320 (colorectal cancer cell) mean tumor volume (mm^3),[2]; [10],1199.1 mm^3
same,IC50 A549 (non-small cell lung cancer),[3]; Table 1,0.016 mg/L
same,IC50 Non-small cell lung cancer tissue (A549),[3]; Table 6,0.016 mg/L
same,IC50 SKBR3 (breast cancer tissue),[4]; Table 1,0.047 mg/L
same,IC50 Breast cancer tissue (SKBR3),[4]; Table 6,0.047 mg/L
same,IC50 A2780 (ovarian cancer),A2780 (ovarian cancer); Table 1,0.015 mg/L
same,IC50 Ovarian cancer tissue (A2780),A2780 (ovarian cancer); Table 6,0.015 mg/L
same,IC50 SJSA-1 (sarcoma tissue),SJSA-1 (sarcoma tissue); Table 1,0.035 mg/L
same,IC50 Sarcoma tissue (SJSA-1),SJSA-1 (sarcoma tissue); Table 6,0.035 mg/L
same,Mouse weight (%),[5]; [11],+12%
same,SJSA-1 (sarcoma tissue) mean tumor volume (mm^3),[5]; [11],1497.5 mm^3
same,SJSA-1 (sarcoma) Growth rate (%),[5]; [11],1295.77%
same,Mouse weight (%),[5]; [12],+12%
same,SJSA-1 (sarcoma tissue) growth rate (%),[5]; [12],1295.77%
same,SJSA-1 (sarcoma tissue) mean tumor volume (mm^3),[5]; [12],1497.5 mm^3
same,IC50 Colorectal cancer tissue (colo320),[6],0.042 mg/L
"CCc1c2c(nc3ccc(OC(=O)N4CCC(N5CCCCC5)CC4)cc13)-c1cc3c(c(=O)n1C2)COC(=O)[C@]3(O)CC [Irinotecan, reference compound]",MTD,"[1]; female, mouse, in vivo, 'around', read-out: MTD (as stated in dosage instructions)",~70 mg/kg
same,MTD,"[1]; female, mouse, in vivo, Table 15 (Example 44), mice, six per group, monitored for 14 d, read-out: MTD",75 mg/kg
same,MTD,"[1]; female, mouse, in vivo, mice, monitored for 14 d, Table 4, read-out: MTD",75 mg/kg
same,MTD,"[1]; female, mouse, in vivo, mice, monitored for 14 d, Table 9, read-out: MTD",75 mg/kg
same,Mouse weight (%),[2]; [13],+35%
same,colo320 (colorectal cancer cell) growth rate (%),[2]; [13],815.39%
same,Mouse weight (%),[2]; [14],+35%
same,colo320 (colorectal cancer cell) growth rate (%),[2]; [14],815.39%
same,Mouse weight (%),[2]; [15],+35%
same,colo320 (colorectal cancer cell) growth rate (%),[2]; [15],815.39%
same,Mouse weight (%),[2]; [16],+35%
same,colo320 (colorectal cancer cell) growth rate (%),[2]; [16],815.39%
same,IC50,"[3]; Table 1, read-out: IC50 A549 (non-small cell lung cancer)",0.11 mg/L
same,IC50,"[3]; Table 6, read-out: IC50 Non-small cell lung cancer tissue (A549)",0.11 mg/L
same,IC50,"[4]; Table 1, read-out: IC50 SKBR3 (breast cancer tissue)",0.25 mg/L
same,IC50,"[4]; Table 6, read-out: IC50 Breast cancer tissue (SKBR3)",0.25 mg/L
same,IC50,"A2780 (ovarian cancer); Table 1, read-out: IC50 A2780 (ovarian cancer)",0.16 mg/L
same,IC50,"A2780 (ovarian cancer); Table 6, read-out: IC50 Ovarian cancer tissue (A2780)",0.16 mg/L
same,IC50,"SJSA-1 (sarcoma tissue); Table 1, read-out: IC50 SJSA-1 (sarcoma tissue)",0.11 mg/L
same,IC50,"SJSA-1 (sarcoma tissue); Table 6, read-out: IC50 Sarcoma tissue (SJSA-1)",0.11 mg/L
same,Mouse weight (%),[5]; [17],+17%
same,SJSA-1 (sarcoma) Growth rate (%),[5]; [17],798.05%
same,Mouse weight (%),[5]; [18],+17%
same,SJSA-1 (sarcoma tissue) growth rate (%),[5]; [18],798.05%
same,IC50,"[6]; Homo sapiens, COLO 320",0.11 mg/L
